Broadly, the LD50 is the dose expected to kill half of the subjects tested.

Here are results for 13 compounds from patent publication US4183931A, “2-Ketoalkyl-4(3H)-quinazolinones” (Research Corporation, priority 1977, dated 1980).

A short description of data set [1]: Neuropharmacological Profile (NPP): general CNS observational screen (depression, righting reflex, ataxia). Particulars: i.p., mice, score 0-8; for Depression: at 300 mg/kg. How it is done:
Representative compounds according to the present invention were tested for central nervous system activity by Pharmakon Laboratories of Scranton, Pennsylvania. The battery of general observational procedures used is referred to herein as a Neuropharmacological Profile (NPP). Additionally, representative compounds were tested in the Anticonvulsant Screening Project of the National Institutes of Neurological and Communicative Disorders and Stroke (NINCDS) at the University of Utah under the direction of Dr. Ewart A. Swinyard.
(§1) The procedures for the determination of a neuropharmacological profile involved white male mice of the Carworth Farm Strain CF-1 weighing 18 to 22 grams. […] Intraperitoneal injections were administered in logarithmic progression and sequentially. The dose levels employed routinely were 10, 30, 100 and 300 mg/kg, using four male mice at each dose level. Since this test was conducted in a sequential manner, the first does administered was at 300 mg/kg. […] Approximately thirty-eight signs and symptoms of pharmacological activity can be identified.
(§2) The animals were observed continously for one hour and, if no signs of pharmacological or toxicological activity were present at the end of the first hour, they were intermittently checked for activity every fifteen minutes thereafter for two consecutive hours. […] The observation period began immediately following the injection and the animals were then continuously observed for three hours and intermittently checked thereafter for forty-eight hours. The animals were observed and signs and symptoms of pharmacological activity were recorded continuously until no further symptoms developed and until the symptoms that appeared were no longer present. […] In such instances, the animals were observed beyond this period until they returned to normal. Routinely, the number of animals alive at the end of the forty-eight hour observation period was recorded and the LD50 estimated.
The animals are free to move about for evaluation of spatial orientation, alertness and spontaneous motor activity.
(§3) Since this is a general CNS screening procedure, only peak effects were recorded. Certain measures of behavior and neurological deficit were scored in terms of intensity of effect, while most others were determined on an all or none basis. Thus, in scoring measures which were normally present, e.g., spontaneous activity and skin color, an increase in score from 4 to 8 was used to denote stimulation or enhancement of skin color, whereas a decrease in score from 4 to 0 indicated depression or cyanosis. For scoring measures normally absent, e.g., depression, righting reflex and ataxia, activity was reflected as an increase in score from 0 to 8. The 0 to 8 scale was rounded off so that the actual ratings are only 0, 2, 4, 6 and 8. The compounds were also evaluated for anticonvulsant activity by using the maximal electroshock seizure (MES) test. In the MES study, four mice were dosed intraperitoneally at 100 mg/kg and challenged thirty minutes later with 50 mA, 0.2 second duration of electroshock. A protection ratio (number of mice protected from tonic extension .div. number of mice tested) was then established.
At the termination of the test, the results were recorded and tabulated.
(§4) Scores for behavioral symptoms, including depression, righting reflex and ataxia, are the actual numbers reported. Protection against MES is reported as a percentage. Since four animals were involved in this test, the findings are 0% for none protected, 25% for one out of four, etc. […] In order to maintain reasonable uniformity in the reporting of results, each entry corresponds to a dosage level of 100 mg/kg. Any variations from that dosage are indicated.

Data set [2] can be described thus: NPP maximal electroshock seizure (MES) protection. Particulars: Mus musculus, ip; for responders at 100 mg/kg: 0.5 h, at 100 mg/kg i.p., four mice, 30 min after dosing. The format is in vivo, white male mice of the Carworth Farm Strain CF-1. How it is done:
as §1, §3, §4
For orientation: The maximal electroshock test induces tonic seizures with an electrical stimulus.

Data set [3] is described as follows: NPP lethality (estimated LD50). As to conditions: mouse, in vivo, ip. How it is done: as §1, §2, §4
Data set [4] is described as follows: NINCDS Subcutaneous Pentylenetetrazol (Metrazol) Seizure Threshold Test (scMet). In kind it is in vivo, mice. Particulars: Mus musculus, sc, read-out: scMet: dosage level that elicited protection. How it is done:
1. Neurological Activity Tests. […] Compounds were evaluated for anticonvulsant activity in two seizure models, the maximal electroshock seizure (MES) test and the subcutaneous pentylenetetrazol (Metrazol) seizure threshold (scMet) test.
Subcutaneous Pentylenetetrazol (Metrazol) Seizure Threshold Test (scMet) produces threshold (clonic) seizures. Pentylenetetrazol is administered subcutaneously as a threshold 0.5% solution (in 0.9% sodium chloride) in a loose fold of skin on the back of the neck in a dose of 85 mg/kg. […] Metrazol is given 10 minutes before the beginning of the test to allow for the delay in onset of Metrazol action. The animal is observed for 30 minutes. Failure to observe even a threshold seizure (a single episode of clonic spasms at least 5 seconds in duration) is defined as protection and indicates anticonvulsant activity in the test compound. These two methods of seizure provocation reliably elicit well-characterizied seizure phenomena.
The ability of a compound to prevent maximal electroshock seizures is believed to correlate with its ability to prevent the spread of seizure discharge through neural tissue. Activity against maximal electroshock seizures is thought to indicate potential efficacy in the treatment of major motor (grand mal) seizures. […] Selective action in the test is believed to indicate potential efficacy against absence (petit mal) seizures.
As described earlier, the MES, scMet and Rotorod tests were performed one-half hour and four hours after administration of each compound.
In the Secondary Evaluation, median effective doses (ED50) are determined in the MES, scMet and Rotorod assays using the procedures defined in Pharmacology, 95, 99-113 (1949).
Separate groups of animals are used for each time period. The times of peak toxic and anticonvulsant effect are taken from the resulting graph of percent of animals responding vs. time, and the determinations of median effective doses are performed at those times.

Setting [5] is: at 30 mg/kg (value in parentheses).
The mark [6] stands for this setting: after 4 hr (value in parentheses).

Read-outs that look alike come from different tables or passages of the source. Some results are limits rather than exact numbers.

As for `Cc1ccc(-n2c(CC(=O)c3cccnc3)nc3ccccc3c2=O)cc1` [IVk, 2-[2-Oxo-2-(3-pyridyl)ethyl]-3-p-tolyl-4(3H)-quinazolinone], in data set [1] (at 100 mg/kg), the “CNS Depression” value was found to be 4. Also, in data set [2], the responders at 100 mg/kg is 0%. For the same compound, the LD50 at 48 h in data set [3] is 562 mg/kg.

Take `Cn1c(CC(=O)c2cccnc2)nc2ccccc2c1=O` [IVs, 2-[2-Oxo-2-(3-pyridyl)ethyl]-3-methyl-4(3H)-quinazolindone]: the “CNS Depression” value in data set [1] (at 100 mg/kg) was determined as 4. In data set [2], the responders at 100 mg/kg was found to be 0%. In data set [3], the 50% lethal dose (LD50) at 48 h was 422 mg/kg.

Turning to `O=C(Cc1nc2ccccc2c(=O)n1-c1ccccc1)c1ccncc1` [IVh, 2-[2-Oxo-2-(4-pyridyl)ethyl]-3-phenyl-4(3H)-quinazolinone], the minimal effective dose in data set [4] (after 0.5 hr) was determined as 100 mg/kg.

For `Cc1nc2ccccc2c(=O)n1-c1ccccc1` [phenyl H, 2-methyl-3-phenyl-4(3H)-quinazolinone, reference compound], the “CNS Depression” value in data set [1] (setting [5]) amounted to 4. Also, in data set [1] (at 100 mg/kg), the Ataxia was found to be 8, the “CNS Depression” value turned out to be 8 and the Righting reflex amounted to 8. Besides, in data set [2] (conducted at 30 mg/kg i.p.), the responders at 30 mg/kg was 0%. Moreover, the LD50 at 48 h in data set [3] is 562 mg/kg.

For `COc1cc(C(=O)Cc2nc3ccccc3c(=O)n2-c2ccccc2C)cc(OC)c1OC` [IIIj, 2-[2-Oxo-2-(3,4,5-trimethoxyphenyl)ethyl]-3-o-tolyl-4(3H)-quinazolinone], the “CNS Depression” value in data set [1] (at 100 mg/kg) was found to be 2. The same compound returned a Depression in data set [1] of 4. In addition, the responders at 100 mg/kg in data set [2] was 0%. For the same compound, the LD50 at 48 h in data set [3] was greater than 562 mg/kg.

In the case of `Cc1ccccc1-n1c(CC(=O)c2ccc(Cl)cc2)nc2ccccc2c1=O` [IIIh, 2-[2-Oxo-2-(4-chlorophenyl)ethyl]-3-o-tolyl-4(3H)-quinazolinone], the “CNS Depression” value in data set [1] (at 100 mg/kg) is 0. Further, in data set [1], the Depression turned out to be 4. In data set [2], this compound showed a responders at 100 mg/kg of 0%. For the same compound, in data set [3], the median lethal dose (LD50) at 48 h is 316 mg/kg.

As for `COc1ccc(C(=O)Cc2nc3ccccc3c(=O)n2-c2ccccc2C)cc1` [IIIi, 2-[2-Oxo-2-(4-methoxyphenyl)ethyl]-3-o-tolyl-4(3H)-quinazolinone], the “CNS Depression” value in data set [1] (at 100 mg/kg) came out at 2. For the same compound, in data set [1], the Depression turned out to be 4. This compound displayed a responders at 100 mg/kg in data set [2] of 0%. Further, the 50% lethal dose (LD50) at 48 h in data set [3] is greater than 562 mg/kg.

Consider `Cc1ccccc1-n1c(CC(=O)C(F)(F)F)nc2ccccc2c1=O` [IIIa, 2-(3,3,3-Trifluoroacetonyl)-3-o-tolyl-4(3H)-quinazoline], for which the “CNS Depression” value in data set [1] (setting [5]) is recorded as 4. The Ataxia in data set [1] (at 100 mg/kg) is given as 2. The compound also showed a responders at 100 mg/kg in data set [2] of 50%. Besides, the LD50 at 48 h in data set [3] was greater than 562 mg/kg.

As for `Cc1ccc(-n2c(CC(=O)c3ccncc3)nc3ccccc3c2=O)cc1` [IVl, 2-[2-Oxo-2-(4 pyridyl)ethyl]-3-p-tolyl-4(3H)-quinazolinone], the minimal effective dose in data set [4] (setting [6]) was found to be 300 mg/kg.

For the compound `O=C(Cc1nc2ccccc2c(=O)n1-c1ccccc1Cl)c1ccccn1` [IVb, 2-[2-Oxo-2-(2-pyridyl)ethyl]-3-o-chlorophenyl-4(3H)-quinazolinone], in data set [1] (at 100 mg/kg), the “CNS Depression” value was 0. The compound also showed a Depression in data set [1] of 2. In data set [2], this compound had a responders at 100 mg/kg of 0%. The LD50 at 48 h in data set [3] was 562 mg/kg.

`Cc1ccccc1-n1c(CC(=O)c2ccccc2)nc2ccccc2c1=O` [IIIg, 2-(2-Oxo-2-phenylethyl)-3-o-tolyl-4(3H)-quinazolinone]: the “CNS Depression” value in data set [1] (setting [5]) and in data set [1] (at 100 mg/kg) was 4 in each case. In data set [2], this compound displayed a responders at 100 mg/kg of 0%. In data set [3], the LD50 at 48 h was greater than 562 mg/kg.

For the compound `Cn1c(CC(=O)c2ccccc2)nc2ccccc2c1=O` [IVr, 2-(2-Oxo-2-phenylethyl)-3-methyl-4(3H)-quinazolinone], the minimal effective dose in data set [4] (setting [6]) turned out to be 300 mg/kg.

On to `Cc1ccccc1-n1c(CCc2ccccc2)nc2ccccc2c1=O` [CH2 C6 H5, reference compound], for which the minimal effective dose in data set [4] (after 0.5 hr) and in data set [4] (setting [6]) was 300 mg/kg throughout.
